Reference: paper PMC4729137, “Functional analysis of androgen receptor mutations that confer anti-androgen resistance identified in circulating cell-free DNA from prostate cancer patients” (Genome Biology, 2016)
Like-named read-outs stand apart in the source and are kept apart here.

How the values were obtained:
[1] = tested on: 24 AR mutants; experiment: AR inhibition luciferase assay, panel of all 24 AR mutants; type: cell-based, human; details: all tested AR mutants; Additional file 4: Table S2
From the text: Full-length human AR (WT-AR) was encoded on a pcDNA3.1 expression plasmid (Life technologies). The LBD point mutations (single and multiple) were generated using the QuikChange II Site-Directed Mutagenesis Kit (Agilent Technologies) as per manufacturer’s instructions using WT-AR as the template. The mutagenic oligonucleotide primers were designed individually with the desired mutation in the middle of the primer with approximately 10 to 15 bases of correct sequence on both sides.
PC3 cells were seeded and transfected as described above. […] A non-stimulated/no R1881 control was used. After 24 h, cells were lysed and AR-dependent luciferase activity was quantified. Each concentration was assayed in quadruplicate n = 4, with a biological replicate of n = 3. Results were averaged and normalized by expressing them as a percentage of WT AR activity.

[2] = target: T1, BF3 pocket of AR-LBD (Homo sapiens, UniProt P10275); experiment: Lanthascreen TR-FRET displacement of FITC-BAG1L peptide; type: binding; details: compounds 0.41 to 100 μM
T1 construct: the (His)6-tagged AR-LBD was prepared at 4X final concentration in the buffer
T1 sequence (P10275 669-900 limits assumed): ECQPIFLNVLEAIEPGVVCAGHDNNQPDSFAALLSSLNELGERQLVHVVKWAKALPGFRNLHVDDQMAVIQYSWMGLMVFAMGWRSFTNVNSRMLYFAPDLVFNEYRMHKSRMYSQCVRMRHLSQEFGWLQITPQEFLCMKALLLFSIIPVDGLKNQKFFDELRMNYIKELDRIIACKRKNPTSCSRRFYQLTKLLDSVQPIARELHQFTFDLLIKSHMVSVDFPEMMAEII
Method: Compounds were tested in the range of 0.41 to 100 μM in a final concentration of 1.5 % DMSO. The protein AR-LBD, the FITC-BAG1L peptide, and the LanthaScreen® Elite Terbium-labeled anti-His-tag antibody (Life Technologies, PV5863) were used at final concentrations of 100 nM, 500 nM, and 5 nM, respectively. […] Mix B contained 4X FITC-BAG1L peptide in 2 % DMSO. A three-fold serial dilution of the compounds was prepared at 100X final concentration in DMSO. […] In a black flat bottom 384-well plate 5 μL of Mix A, 5 μL of Mix B, and 10 μL of Mix C were added.

[3] = serum of prostate cancer patients, cited from earlier work

C[C@]12CC[C@H](O)CC1=CC[C@@H]1[C@@H]2CC[C@]2(C)C(c3cccnc3)=CC[C@@H]12 [abiraterone]
Activation of AR mutants (in words) [1]: none of the tested mutants were activated

Brc1cn(-c2csc(N3CCOCC3)n2)c(Br)n1 [VPC-14449]
Displacement of FITC labeled BAG1L peptide (residues 1-20) from the BF3 pocket of AR [2]: not able to displace

CC(O)(CS(=O)(=O)c1ccc(F)cc1)C(=O)Nc1ccc(C#N)c(C(F)(F)F)c1 (stereo not shown) [Bicalutamide, bicalutamide]
Steady state concentration in serum [3]: 8.9 µg/mL | Steady state concentration in serum ([3]; converted from μg/mL): approximately 20 μM
